# Experimental data: patent publication US20060013866A1, “Transdermal drug delivery formulations with optimal amounts of vasodilators therein” (priority 2004, published 2006)
# Assays:
# Assay type in all cases: in vivo
# [1] = Maximal blood flow stimulated by vasodilator, laser Doppler perfusion imager
# Description: The present invention also relates to the methods needed to obtain the optimal transdermal delivery of drugs as a function of enhanced delivery resulting from the presence of vasodilator chemicals relates to the topical application of therapeutic or diagnostic agents for the systemic or localized distribution of therapeutic or diagnostic agents for the purpose of treating or detecting diseases and medical conditions. The topically applied agents may be administered at different locations on the human body to achieve access to the circulatory system. The inclusion of chemical vasodilator facilitates the transportation of the therapeutic and diagnostic agents. Chemical vasodilators act through a mechanism-specific basis resulting in a stimulation or inhibition of the uptake of the therapeutic or diagnostic agents. […] Transdermal delivery of the drug molecule as a function of the vasodilator is evaluated in a living suitable animal model or human test subject, topically applying the test formulations, which contain varying amounts of vasodilator. […] Effective transdermal drug delivery is measured by determining the amount of drug present in the blood plasma as a function of time following the single application. […]
# Maximal blood flow stimulated by the vasodilator tolazoline was measured using a laser Doppler perfusion imager.
# [2] = Topical ibuprofen vehicle with tolazoline applied to rabbits, ibuprofen in plasma over three hours; details: 150 mg sodium salt-ibuprofen
# Procedure: (§1) Test formulations containing 15% ibuprofen- sodium salt, 5% oleic acid, 10% menthol, 5% propylene glycol, 10% dimethylacetamide, 1% decylmethylsulfoxide, 1% u-care, varying amounts of tolazoline ranging from 0-0.1%, and 52.9-53% deionized water were each blended in a beaker with a mechanical mixer and heated to 40° C. for 30 minutes until clear, then cooled to room temperature.
# (§2) 150 mg of sodium salt-ibuprofen was formulated with the above lipid-based vehicle formulatiosn containing increasing amounts of the vasodilator tolazoline. The Ibuprofen vehicle was topically applied to rabbits and blood samples were taken over a three-hour period. Plasma was prepared and analyzed for the amount of ibuprofen present in the blood. The data represents the integrated value of ibuprofen concentration in the blood for the three hour time period for each concentration of tolazoline.
# [3] = Topical ibuprofen vehicle with papaverine applied to rabbits, ibuprofen in plasma over three hours; details: 150 mg sodium salt-ibuprofen
# Procedure: as §1, with “ibuprofen-sodium” for “ibuprofen- sodium”, “papaverine” for “tolazoline”, “0-1%,” for “0-0.1%,”, “52-53%” for “52.9-53%”
# as §2, with “papaverine.” for “tolazoline.”
# [4] = Topical ibuprofen vehicle with tocopherol nicotinate applied to rabbits, ibuprofen in plasma over three hours
# Procedure: as §1, with “ibuprofen-sodium” for “ibuprofen- sodium”, “tocopherol nicotinate in the range of 0-1%,” for “tolazoline ranging from 0-0.1%,”, “52-53%” for “52.9-53%”
# as §2, with “with a 1-gram dose of” for “with”, “formulations” for “formulatiosn”, “containing the” for “containing”, “tocopherol nicotinate.” for “tolazoline.”
compound,measurement,setting,value
c1ccc(CC2=NCCN2)cc1 [tolazoline],concentration of tolazoline at which the maximum blood flow was achieved,[1],0.5%
"CC(C)Cc1ccc(C(C)C(=O)O)cc1 (centres unmarked) [Ibuprofen, ibuprofen]",integrated value of ibuprofen concentration in the blood (0-3 hr),[2]; Control (no tolazoline),1030 ng·h/mL
same,integrated value of ibuprofen concentration in the blood (0-3 hr),[2]; tolazoline 0.0010%,3900 ng·h/mL
same,integrated value of ibuprofen concentration in the blood (0-3 hr),[2]; tolazoline 0.0050%,5240 ng·h/mL
same,integrated value of ibuprofen concentration in the blood (0-3 hr),[2]; tolazoline 0.0100%,5660 ng·h/mL
same,integrated value of ibuprofen concentration in the blood (0-3 hr),[2]; tolazoline 0.0500%,3530 ng·h/mL
same,integrated value of ibuprofen concentration in the blood (0-3 hr),[2]; tolazoline 0.100%,4530 ng·h/mL
same,integrated value of ibuprofen concentration in the blood (0-3 hr),[3]; Control (no papaverine),1030 ng·h/mL
same,integrated value of ibuprofen concentration in the blood (0-3 hr),[3]; papaverine 0.00010%,5120 ng·h/mL
same,integrated value of ibuprofen concentration in the blood (0-3 hr),[3]; papaverine 0.00025%,4470 ng·h/mL
same,integrated value of ibuprofen concentration in the blood (0-3 hr),[3]; papaverine 0.00050%,8370 ng·h/mL
same,integrated value of ibuprofen concentration in the blood (0-3 hr),[3]; papaverine 0.0010%,7620 ng·h/mL
same,integrated value of ibuprofen concentration in the blood (0-3 hr),[3]; papaverine 0.0100%,5720 ng·h/mL
same,integrated value of ibuprofen concentration in the blood (0-3 hr),[3]; papaverine 0.100%,4230 ng·h/mL
same,integrated value of ibuprofen concentration in the blood (0-3 hr),[3]; papaverine 1.000%,6160 ng·h/mL
same,integrated value of ibuprofen concentration in the blood (0-3 hr),"[4]; 150 mg sodium salt-ibuprofen in 1-gram dose, Control (no tocopherol nicotinate)",1030 ng·h/mL
same,integrated value of ibuprofen concentration in the blood (0-3 hr),"[4]; 150 mg sodium salt-ibuprofen, tocopherol nicotinate 0.00010%",3980 ng·h/mL
same,integrated value of ibuprofen concentration in the blood (0-3 hr),"[4]; 150 mg sodium salt-ibuprofen, tocopherol nicotinate 0.00025%",9480 ng·h/mL
same,integrated value of ibuprofen concentration in the blood (0-3 hr),"[4]; 150 mg sodium salt-ibuprofen, tocopherol nicotinate 0.00050%",3120 ng·h/mL
same,integrated value of ibuprofen concentration in the blood (0-3 hr),"[4]; 150 mg sodium salt-ibuprofen, tocopherol nicotinate 0.0010%",5080 ng·h/mL
same,integrated value of ibuprofen concentration in the blood (0-3 hr),"[4]; 150 mg sodium salt-ibuprofen, tocopherol nicotinate 0.0100%",5840 ng·h/mL
same,integrated value of ibuprofen concentration in the blood (0-3 hr),"[4]; 150 mg sodium salt-ibuprofen, tocopherol nicotinate 0.100%",4300 ng·h/mL
same,integrated value of ibuprofen concentration in the blood (0-3 hr),"[4]; 150 mg sodium salt-ibuprofen, tocopherol nicotinate 1.000%",4400 ng·h/mL
